# Experimental data reported in paper PMC6582431 (Chemmedchem, 2018).
# Experiments:
# [1] = CYP450 metabolic stability, dog liver microsomes; assay type: in vitro ADME; settings: 5 μM in liver microsomes, 1 h incubation
# [2] = multiple ascending doses up to 20 mg; cited from earlier work
# carboxylesterases (CEs) = test: CE activity in rat liver microsomes; assay type: biochemical; settings: 10 μM in rat liver microsomes; Table 5
# FAAH [3] = target: T1, FAAH (Mus musculus, UniProt O08914); test: In vivo FAAH inhibition, liver, after oral administration to mice
# T1 sequence (O08914 1-579): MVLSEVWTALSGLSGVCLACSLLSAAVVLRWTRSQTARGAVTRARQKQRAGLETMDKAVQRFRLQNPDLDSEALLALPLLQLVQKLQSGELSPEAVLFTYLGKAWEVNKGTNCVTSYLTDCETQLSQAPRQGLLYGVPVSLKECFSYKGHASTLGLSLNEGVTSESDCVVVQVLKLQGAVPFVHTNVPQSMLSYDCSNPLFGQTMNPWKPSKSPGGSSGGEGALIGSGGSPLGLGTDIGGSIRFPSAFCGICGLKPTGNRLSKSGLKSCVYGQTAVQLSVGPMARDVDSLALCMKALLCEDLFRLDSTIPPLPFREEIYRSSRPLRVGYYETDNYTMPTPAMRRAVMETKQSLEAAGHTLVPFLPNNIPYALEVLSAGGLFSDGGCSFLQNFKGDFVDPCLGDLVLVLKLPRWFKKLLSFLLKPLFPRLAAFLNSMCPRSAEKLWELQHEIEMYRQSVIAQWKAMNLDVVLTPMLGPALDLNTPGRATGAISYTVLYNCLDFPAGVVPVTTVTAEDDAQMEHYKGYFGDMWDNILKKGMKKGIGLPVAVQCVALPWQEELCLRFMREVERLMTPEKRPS
# FAAH [4] = target: T2, FAAH (Rattus norvegicus, UniProt P97612); test: In vitro FAAH activity in rat brain homogenates/membranes; assay type: biochemical; settings: 100 nM; rat brain homogenates, 15 min pre-incubation; Table 5
# T2 sequence (P97612 1-579): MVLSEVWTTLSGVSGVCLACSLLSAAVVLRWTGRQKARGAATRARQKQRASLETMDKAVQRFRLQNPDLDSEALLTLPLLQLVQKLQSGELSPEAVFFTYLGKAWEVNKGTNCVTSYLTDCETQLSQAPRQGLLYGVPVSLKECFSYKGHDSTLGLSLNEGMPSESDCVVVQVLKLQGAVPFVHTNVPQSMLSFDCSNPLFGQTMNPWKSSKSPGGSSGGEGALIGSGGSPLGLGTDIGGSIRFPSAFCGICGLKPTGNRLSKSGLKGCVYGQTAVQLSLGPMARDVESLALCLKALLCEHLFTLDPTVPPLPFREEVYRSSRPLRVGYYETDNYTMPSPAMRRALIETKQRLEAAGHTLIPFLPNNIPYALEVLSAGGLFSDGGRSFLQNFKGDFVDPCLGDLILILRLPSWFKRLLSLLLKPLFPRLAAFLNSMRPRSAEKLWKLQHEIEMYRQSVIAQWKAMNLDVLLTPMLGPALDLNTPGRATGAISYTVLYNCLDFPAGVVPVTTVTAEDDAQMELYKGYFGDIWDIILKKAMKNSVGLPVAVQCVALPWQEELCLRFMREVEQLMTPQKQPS
# FAAH [5] = target: T1, FAAH; test: In vivo FAAH inhibition, brain, after oral administration to mice
# [6] = CYP450 metabolic stability, primate liver microsomes; assay type: in vitro ADME; settings: 5 μM in liver microsomes, 1 h incubation
# [7] = CYP450 metabolic stability, rat liver microsomes; assay type: in vitro ADME; settings: 5 μM in liver microsomes, 1 h incubation
# [8] = CYP450 metabolic stability, mouse liver microsomes; assay type: in vitro ADME; settings: 5 μM in liver microsomes, 1 h incubation
# [9] = CYP450 metabolic stability, human liver microsomes; assay type: in vitro ADME; settings: 5 μM in liver microsomes, 1 h incubation
# MAGL = target: T3, MAGL (Rattus norvegicus, UniProt Q8R431); test: MAGL activity in rat cerebellum cytosol; assay type: biochemical; settings: C inhib=100 μM in rat cerebellum cytosol; Table 5
# T3 sequence (Q8R431 1-303): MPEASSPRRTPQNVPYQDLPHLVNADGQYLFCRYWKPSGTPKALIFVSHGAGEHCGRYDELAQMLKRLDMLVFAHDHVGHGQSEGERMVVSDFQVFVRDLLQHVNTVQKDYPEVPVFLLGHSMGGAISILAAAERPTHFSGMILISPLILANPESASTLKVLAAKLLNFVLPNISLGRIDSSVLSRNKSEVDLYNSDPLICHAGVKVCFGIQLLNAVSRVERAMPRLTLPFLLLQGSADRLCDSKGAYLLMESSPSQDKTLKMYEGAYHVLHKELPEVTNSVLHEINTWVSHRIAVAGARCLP
# [10] = 0.1 mg kg^−1, mouse, p.o., text b31
# [11] = 0.1 mg kg^−1 p.o. in mice, 8 h after administration, Table 5
# [12] = 0.1 mg kg^−1 p.o., mice, post-dose
smiles,measurement,setting,value
"CN(C(=O)n1cnc(-c2ccc[n+]([O-])c2)c1)C1CCCCC1 [Compound 8 l, 3‐(1‐(Cyclohexyl(methyl)carbamoyl)‐1H‐imidazol‐4‐yl)pyridine 1‐oxide]","CYP450 metabolic stability, Dog, percent of remaining",[1],94±2% of remaining
same,systemic exposure to anandamide,[2],increased in a dose‐dependent manner
same,"CEs (10 μM), percent of control",carboxylesterases (CEs),102±5% of control
same,"in vivo FAAH inhibitory activity, liver",FAAH [3]; [10],> 90 % of control
same,"Liver FAAH activity, percent of control",FAAH [3]; [11],6±2% of control
same,time of maximum inhibitory effect in the liver,FAAH [3]; [12],1 h
same,ED50,"FAAH [3]; mouse, po, 8 h, read-out: ED50 liver FAAH",7 µg/kg
same,inhibition at 0.1 mg/kg,"FAAH [3]; mouse, po, read-out: peripheral inhibition of FAAH sustained over the next 7 h",> 90%
same,"FAAH activity, percent of control, 100 nM",FAAH [4],85±11% of control
same,"in vivo FAAH inhibitory activity, brain",FAAH [5]; [10],> 90 % of control
same,"Brain FAAH activity, percent of control",FAAH [5]; [11],8±2% of control
same,maximal inhibitory effect in the brain,"FAAH [5]; 0.1 mg kg^−1 p.o., mice, at 8 h post-dose",> 90%
same,time of maximal inhibitory effect in the brain (t max),FAAH [5]; [12],8 h
same,central FAAH inhibition maintained up to 48 h post-administration,"FAAH [5]; 0.1 mg kg^−1 p.o., mice, up to 48 h",> 50%
same,ED50 cerebral FAAH,"FAAH [5]; mice, p.o., 0.001 to 3 mg kg^−1, 8 h post-administration",~27 µg/kg
same,"CYP450 metabolic stability, Primate, percent of remaining",[6],88±1% of remaining
same,"CYP450 metabolic stability, Rat, percent of remaining",[7],91±1% of remaining
same,"CYP450 metabolic stability, Mouse, percent of remaining",[8],99±2% of remaining
same,"CYP450 metabolic stability, Human, percent of remaining",[9],95±1% of remaining
same,"MAGL (100 μM), percent of control",MAGL,96±4% of control
